Test [1] concerns the target T1, High affinity 3',5'-cyclic-AMP phosphodiesterase 7A (Homo sapiens, UniProt Q13946). Kind of test: Competitive inhibition of human recombinant PDE7A1 using […] after 20 mins by Lineweaver-Burk plot analysis.
Test [2] addresses T1, High affinity 3',5'-cyclic-AMP phosphodiesterase 7A. Kind of test: Non-competitive mixed type inhibition of human recombinant PDE7A1 using […] after 20 mins by Lineweaver-Burk plot analysis.
Test [3] has the same target. Kind of test: Inhibition of human recombinant PDE7A1 using […] after 20 mins by scintillation proximity assay.

Active and inactive are the calls of the source. The rule behind the calls is not given here.

T1 sequence (Q13946 whole entry): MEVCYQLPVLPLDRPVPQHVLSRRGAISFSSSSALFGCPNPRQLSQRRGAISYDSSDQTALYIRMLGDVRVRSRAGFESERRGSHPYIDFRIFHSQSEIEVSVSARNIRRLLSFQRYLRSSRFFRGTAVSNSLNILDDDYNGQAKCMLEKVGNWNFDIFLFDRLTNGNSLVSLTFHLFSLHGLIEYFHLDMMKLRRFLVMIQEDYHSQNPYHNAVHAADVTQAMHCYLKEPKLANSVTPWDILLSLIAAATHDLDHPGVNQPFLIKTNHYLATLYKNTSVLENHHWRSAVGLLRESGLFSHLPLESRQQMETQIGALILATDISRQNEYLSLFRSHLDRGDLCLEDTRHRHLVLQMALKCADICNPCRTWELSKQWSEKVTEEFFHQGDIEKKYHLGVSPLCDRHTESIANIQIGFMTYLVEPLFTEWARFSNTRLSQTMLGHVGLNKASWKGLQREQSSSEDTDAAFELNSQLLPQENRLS

For the molecule `CCSc1nc2ccccc2c(=O)n1-c1ccccc1`, the “competitive inhibition (Lineweaver-Burk)” value in test [1] is “Active”.

Regarding `O=c1c2ccccc2[nH]c(=S)n1-c1ccccc1`, in test [2], the inhibition result is “Active”. For the molecule `O=c1c2ccccc2nc(SCc2ccccc2)n1-c1ccccc1`, the “competitive inhibition (Lineweaver-Burk)” value in test [1] was “Active”.

As for `CC(C)Cn1c(=O)n(C)c(=O)c2nc[nH]c21`, the “competitive inhibition (Lineweaver-Burk)” value in test [1] is “Active”. `Cc1cccc2c(=O)n(-c3c(F)cccc3F)c(=S)[nH]c12`: the IC50 (usually the concentration that inhibits the measured activity by half) in test [3] stood at 9.3 µM.

In the case of `S=c1[nH]c2ccccc2c(=S)n1-c1ccccc1`, the inhibition entry in test [2] was “Active”. As to `O=c1c2ccccc2[nH]c(=S)n1-c1ccc(F)c(F)c1F`, the IC50 in test [3] was determined as 7.02 µM. The same measure, in the same setting: with `CSc1nc2ccccc2c(=S)n1-c1c(F)cccc1F` the figure was 3.23 µM. Same read-out and setting: under `CSc1nc2c(Cl)cccc2c(=O)n1-c1c(F)cccc1F` stands 15.2 µM; under `CSc1nc2ccc(Br)cc2c(=O)n1-c1ccc(F)c(F)c1F`, 5.07 µM; under `CSc1nc2c(C)cccc2c(=O)n1-c1ccccc1Br`, 1.69 µM. As to `CSc1nc2ccccc2c(=O)n1-c1c(F)cccc1F`, the “competitive inhibition (Lineweaver-Burk)” value in test [1] was “Active”. Take `Fc1cccc(F)c1-n1c(=S)[nH]c2ccccc2c1=S`: the IC50 in test [3] stood at 0.48 µM. On the same count and under the same terms, with `CSc1nc2ccccc2c(=S)n1-c1ccccc1Br` the figure was 5.33 µM.
